Measured values: patent US20120264735A1 (priority 2009, published 2012)

The molecules below were run against T1, c-Met kinase (recombinant c-Met) (Homo sapiens, UniProt P08581) (assay: In vitro kinase assay I (homogeneous time-resolved fluorescence tyrosine kinase assay)).
T1 construct: 0.27 nM recombinant c-Met
Type: biochemical
Summary of the method: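 Biotinylated peptide (0.5 μM) phosphorylated by 0.2 nM recombinant c-Met with 50 μM MgATP, 60 min at room temperature, pH 7.4, 5% DMSO. EDTA stop; HTRF read with Eu-anti-phosphotyrosine antibody and streptavidin-APC. IC50 from 4-parameter logistic fit.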

T1 sequence (P08581 25-1390): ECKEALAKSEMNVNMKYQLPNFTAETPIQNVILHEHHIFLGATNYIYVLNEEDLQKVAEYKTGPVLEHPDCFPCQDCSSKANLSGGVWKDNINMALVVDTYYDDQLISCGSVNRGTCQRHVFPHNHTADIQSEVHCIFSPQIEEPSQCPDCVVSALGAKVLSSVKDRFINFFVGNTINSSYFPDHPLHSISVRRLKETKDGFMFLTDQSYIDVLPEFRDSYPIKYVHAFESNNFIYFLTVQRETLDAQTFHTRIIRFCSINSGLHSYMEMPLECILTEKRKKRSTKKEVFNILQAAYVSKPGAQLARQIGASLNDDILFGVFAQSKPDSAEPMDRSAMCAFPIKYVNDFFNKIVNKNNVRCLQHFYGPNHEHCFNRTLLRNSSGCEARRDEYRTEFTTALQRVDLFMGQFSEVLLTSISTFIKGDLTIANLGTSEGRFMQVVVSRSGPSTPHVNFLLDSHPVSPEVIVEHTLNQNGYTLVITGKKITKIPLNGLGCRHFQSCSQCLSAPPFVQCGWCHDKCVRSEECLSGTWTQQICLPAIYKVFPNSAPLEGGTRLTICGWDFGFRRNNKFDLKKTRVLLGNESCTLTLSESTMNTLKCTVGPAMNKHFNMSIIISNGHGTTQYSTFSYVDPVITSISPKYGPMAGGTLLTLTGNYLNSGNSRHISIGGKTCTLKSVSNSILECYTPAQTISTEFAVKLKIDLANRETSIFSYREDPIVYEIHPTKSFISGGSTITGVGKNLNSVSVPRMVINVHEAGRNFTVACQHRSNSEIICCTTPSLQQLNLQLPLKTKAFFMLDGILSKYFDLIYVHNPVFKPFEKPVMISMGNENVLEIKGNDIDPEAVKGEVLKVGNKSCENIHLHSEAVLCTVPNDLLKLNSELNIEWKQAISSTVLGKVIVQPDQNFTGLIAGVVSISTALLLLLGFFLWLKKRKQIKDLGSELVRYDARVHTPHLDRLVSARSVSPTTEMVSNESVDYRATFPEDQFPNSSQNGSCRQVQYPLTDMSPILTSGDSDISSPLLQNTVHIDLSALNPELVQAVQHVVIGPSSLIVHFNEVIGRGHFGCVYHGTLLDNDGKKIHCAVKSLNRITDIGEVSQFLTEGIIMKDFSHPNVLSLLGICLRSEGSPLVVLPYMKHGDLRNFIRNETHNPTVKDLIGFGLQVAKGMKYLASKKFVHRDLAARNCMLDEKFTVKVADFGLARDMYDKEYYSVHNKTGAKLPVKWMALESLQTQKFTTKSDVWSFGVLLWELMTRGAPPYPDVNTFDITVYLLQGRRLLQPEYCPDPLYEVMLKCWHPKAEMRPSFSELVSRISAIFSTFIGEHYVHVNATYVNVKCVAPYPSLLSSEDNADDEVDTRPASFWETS

| IC50 | SMILES |
| --- | --- |
| < 100 nM | CC1(COc2cnc(-c3cccc(Cc4nn(-c5ccc(F)c(F)c5)ccc4=O)c3)nc2)COC1 [Example 329, 1-(3,4-difluorophenyl)-3-(3-{5-[(3-methyloxetan-3-yl)methoxy]pyrimidin-2-yl}benzyl)pyridazin-4(1H)-one] |
| < 100 nM | CCn1cc(-n2ccc(=O)c(C(C)c3cccc(-c4ncc(OCCO)cn4)c3)n2)cn1 (single isomer, unassigned) [Example 295, 1-(1-ethyl-1H-pyrazol-4-yl)-3-[(1R or S)-1-{3-[5-(2-hydroxyethoxy)pyrimidin-2-yl]phenyl}ethyl]pyridazin-4(1H)-one] |
| < 100 nM | CCOC(=O)Nc1cccc(Cc2nn(-c3cnn(C)c3)ccc2=O)c1 [Example 1, Ethyl(3-{[1-(1-methyl-1H-pyrazol-4-yl)-4-oxo-1,4-dihydropyridazin-3-yl]methyl}phenyl)carbamate] |
| < 100 nM | CCCOC(=O)Nc1cccc(Cc2nn(-c3cnn(C)c3)ccc2=O)c1 [Example 52, propyl (3-{[1-(1-methyl-1H-pyrazol-4-yl)-4-oxo-1,4-dihydropyridazin-3-yl]methyl}phenyl)carbamate] |
| < 100 nM | CCCn1cc(-n2ccc(=O)c(Cc3cccc(NC(=O)OCCN4CCOCC4)c3)n2)cn1 [Example 117, 2-morpholin-4-ylethyl (3-{[4-oxo-1-(1-propyl-1H-pyrazol-4-yl)-1,4-dihydropyridazin-3-yl]methyl}phenyl)carbamate] |
| 100 to 1000 nM | Cn1cc(-n2ccc(=O)c(Cc3cccc(-c4ncc(CO)s4)c3)n2)cn1 [Example 676, 3-{3-[5-(hydroxymethyl)-1,3-thiazol-2-yl]benzyl}-1-(1-methyl-1H-pyrazol-4-yl)pyridazin-4(1H)-one] |
| 100 to 1000 nM | CC(c1cccc(-c2nccc(C(C)(C)O)n2)c1)c1nn(-c2cnn(C)c2)ccc1=O (single isomer, unassigned) [Example 694, 3-[(1R or S)-1-{3-[4-(2-hydroxypropan-2-yl)pyrimidin-2-yl]phenyl}ethyl]-1-(1-methyl-1H-pyrazol-4-yl)pyridazin-4(1H)-one] |
| 100 to 1000 nM | CCCCc1nc(-c2cccc(Cc3nn(-c4cnn(C)c4)ccc3=O)c2)no1 [Example 741, 3-[3-(5-butyl-1,2,4-oxadiazol-3-yl)benzyl]-1-(1-methyl-1H-pyrazol-4-yl)pyridazin 4(1H)-one] |
| < 100 nM | C=C(C)c1cnc(-c2cccc(Cc3nn(-c4cnn(C)c4)ccc3=O)c2)nc1 [Example 399, 1-(1-methyl-1H-pyrazol-4-yl)-3-{3-[5-(prop-1-en-2-yl)pyrimidin-2-yl]benzyl}pyridazin-4(1H)-one] |
| < 100 nM | Cn1cc(-n2ccc(=O)c(Cc3cccc(-c4ncc(OC5CCC6(CC5)OCCO6)cn4)c3)n2)cn1 [Example 123, 3-{3-[5-(1,4-dioxaspiro[4.5]dec-8-yloxy)pyrimidin-2-yl]benzyl}-1-(1-methyl-1H-pyrazol-4-yl)pyridazin-4(1H)-one] |
| < 100 nM | Cn1cc(-n2ccc(=O)c(Cc3cccc(-c4ncc(OCC5(O)CCOCC5)cn4)c3)n2)cn1 [Example 365, 3-(3-{5-[(4-hydroxytetrahydro-2H-pyran-4-yl)methoxy]pyrimidin-2-yl}benzyl)-1-(1-methyl-1H-pyrazol-4-yl)pyridazin-4(1H)-one] |
| < 100 nM | Cn1cc(-n2ccc(=O)c(Cc3cccc(-c4ncc(C(=O)NCC5CCCO5)cn4)c3)n2)cn1 (racemic) [Example 483, rac-2-(3-{[1-(1-methyl-1H-pyrazol-4-yl)-4-oxo-1,4-dihydro-pyridazin-3-yl]methyl}phenyl)-N-(tetrahydro-furan-2-ylmethyl)pyrimidine-5-carboxamide] |
| < 100 nM | CCCn1cc(-n2ccc(=O)c(Cc3cccc(NC(=O)OCC(C)C)c3)n2)cn1 [Example 113, 2-methylpropyl (3-{[4-oxo-1-(1-propyl-1H-pyrazol-4-yl)-1,4-dihydropyridazin-3-yl]methyl}phenyl)carbamate] |
| < 100 nM | Cn1cc(-n2ccc(=O)c(Cc3cccc(-c4ncc(O[C@H]5CC[C@H](O)CC5)cn4)c3)n2)cn1 [Example 747, 3-(3-{5-[(trans-4-hydroxycyclohexyl)oxy]pyrimidin-2-yl}benzyl)-1-(1-methyl-1H-pyrazol-4-yl)pyridazin-4(1H)-one] |
| < 100 nM | CCn1cc(-n2ccc(=O)c(Cc3cccc(-c4ncc(OCCN5CCOCC5)cn4)c3)n2)cn1 [Example 312, 1-(1-ethyl-1H-pyrazol-4-yl)-3-{3-[5-(2-morpholin-4-ylethoxy)pyrimidin-2-yl]benzyl}pyridazin-4(1H)-one] |
| < 100 nM | CCOc1cnc(-c2cccc(Cc3nn(-c4cnn(CC(C)(C)O)c4)ccc3=O)c2)nc1 [Example 666, 3-[3-(5-Ethoxypyrimidin-2-yl)benzyl]-1-[1-(2-hydroxy-2-methylpropyl)-1H-pyrazol-4-yl]pyridazin-4(1H)-one] |
| < 100 nM | Cn1cc(-n2ccc(=O)c(Cc3cccc(NC(=O)OCC4CCCCO4)c3)n2)cn1 (racemic) [Example 563, rac-tetrahydro-2H-pyran-2-ylmethyl (3-{[1-(1-methyl-1H-pyrazol-4-yl)-4-oxo-1,4-dihydropyridazin-3-yl]methyl}phenyl)carbamate] |

| IC50 | SMILES |
| --- | --- |
| < 100 nM | Cn1cc(-n2ccc(=O)c(Cc3cccc(-c4ncc(OCC5(F)CCOCC5)cn4)c3)n2)cn1 [Example 388, 3-(3-{5-[(4-fluorotetrahydro-2H-pyran-4-yl)methoxy]pyrimidin-2-yl}benzyl)-1-(1-methyl-1H-pyrazol-4-yl)pyridazin-4(1H)-one] |
| < 100 nM | COCCOC(=O)Nc1cccc(Cc2nn(-c3cc(F)c(F)c(F)c3)ccc2=O)c1 [Example 503, 2-methoxyethyl (3-{[4-oxo-1-(3,4,5-trifluorophenyl)-1,4-dihydropyridazin-3-yl]methyl}phenyl)carbamate] |
| < 100 nM | C[C@H](O)[C@@H](C)Oc1cnc(-c2cccc(Cc3nn(-c4cnn(C)c4)ccc3=O)c2)nc1 (single isomer, unassigned) [Example 376] |
| < 100 nM | CC1CCCN(c2cnc(-c3cccc(Cc4nn(-c5cnn(C)c5)ccc4=O)c3)nc2)C1 (racemic) [Example 469, rac-3-{3-[5-(3-methyl-piperidin-1-yl)pyrimidin-2-yl]benzyl}-1-(1-methyl-1H-pyrazol-4-yl)pyridazin-4(1H)-one] |
| < 100 nM | CCOc1cnc(-c2cccc(Cc3nn(-c4ccc(Cl)c(F)c4)ccc3=O)c2)nc1 [Example 152, 1-(4-chloro-3-fluorophenyl)-3-[3-(5-ethoxypyrimidin-2-yl)benzyl]pyridazin-4(1H)-one] |
| < 100 nM | CNC(=O)CCCn1cc(-n2ccc(=O)c(Cc3cccc(NC(=O)OCC(C)C)c3)n2)cn1 [Example 697, 2-methylpropyl {3-[(1-{1-[4-(methylamino)-4-oxobutyl]-1H-pyrazol-4-yl}-4-oxo-1,4-dihydropyridazin-3-yl)methyl]phenyl} carbamate] |
| < 100 nM | CCOc1cnc(-c2cccc(C(C)c3nn(-c4cnn(CC)c4)ccc3=O)c2)nc1 (single isomer, unassigned) [Example 246, 3-{(1R or S)-1-[3-(5-ethoxypyrimidin-2-yl)phenyl]ethyl}-1-(1-ethyl-1H-pyrazol-4-yl)pyridazin-4(1H)-one] |
| < 100 nM | CC(c1cccc(-c2ncc(OC(C)C(C)(C)O)cn2)c1)c1nn(-c2cnn(C)c2)ccc1=O (single isomer, unassigned) [Example 383, 3-{(1R or S)-1-[3-(5-{[(1R or S)-2-hydroxy-1,2-dimethylpropyl]oxy}pyrimidin-2-yl)phenyl]ethyl}-1-(1-methyl-1H-pyrazol-4-yl)pyridazin-4(1H)-one] |
| < 100 nM | CC(C)COC(=O)Nc1cccc(Cc2nn(-c3cc(F)c(F)c(F)c3)ccc2=O)c1 [Example 7, 2-methylpropyl (3-{[4-oxo-1-(3,4,5-trifluorophenyl)-1,4-dihydropyridazin-3-yl]methyl}phenyl)carbamate] |
| < 100 nM | COCC1CCCN(c2cnc(-c3cccc(Cc4nn(-c5cnn(C)c5)ccc4=O)c3)nc2)C1 (racemic) [Example 449, rac-3-(3-{5-[3-(methoxymethyl)piperidin-1-yl]pyrimidin-2-yl}benzyl)-1-(1-methyl-1H-pyrazol-4-yl)pyridazin-4(1H)-one] |
| 100 to 1000 nM | COC(C)c1cnc(-c2cccc(Cc3nn(-c4cnn(C)c4)ccc3=O)c2)nc1 (racemic) [Example 166, rac-3-{3-[5-(1-methoxyethyl)pyrimidin-2-yl]benzyl}-1-(1-methyl-1H-pyrazol-4-yl)pyridazin-4(1H)-one] |
| < 100 nM | Cn1cc(-n2ccc(=O)c(Cc3cccc(NC(=O)OCC4CCOC4)c3)n2)cn1 (racemic) [Example 542, rac-tetrahydrofuran-3-ylmethyl (3-{[1-(1-methyl-1H-pyrazol-4-yl)-4-oxo-1,4-dihydropyridazin-3-yl]methyl}phenyl)carbamate] |
| < 100 nM | Cn1cc(-n2ccc(=O)c(Cc3cccc(-c4ncc(OCCc5cnoc5)cn4)c3)n2)cn1 [Example 273, 3-{3-[5-(2-isoxazol-4-ylethoxy)pyrimidin-2-yl]benzyl}-1-(1-methyl-1H-pyrazol-4-yl)pyridazin-4(1H)-one] |
| < 100 nM | CCOCCOc1cnc(-c2cccc(Cc3nn(-c4cccc(C#N)c4)ccc3=O)c2)nc1 [Example 323, 3-[3-{3-[5-(2-ethoxyethoxy)pyrimidin-2-yl]benzyl}-4-oxopyridazin-1(4H)-yl]benzonitrile] |
| < 100 nM | CCCn1cnc(-c2cccc(Cc3nn(-c4cnn(CCO)c4)ccc3=O)c2)n1 [compound 192, 1-[1-(2-hydroxyethyl)-1H-pyrazol-4-yl]-3-[3-(1-propyl-1H-1,2,4-triazol-3-yl)benzyl]pyridazin-4(1H)-one] |
| 100 to 1000 nM | CC(C)COC(=O)Nc1cccc(Cc2nn(-c3cnn(CC(C)C)c3)ccc2=O)c1 [Example 94, 2-methylpropyl [3-({1-[1-(2-methylpropyl)-1H-pyrazol-4-yl]-4-oxo-1,4-dihydropyridazin-3-yl}methyl)phenyl]carbamate] |
| < 100 nM | COc1cnc(-c2cccc(Cc3nn(-c4cnn(C)c4)ccc3=O)c2)nc1 [Example 5, 3-[3-(5-Methoxypyrimidin-2-yl)benzyl]-1-(1-methyl-1H-pyrazol-4-yl)pyridazin-4(1H)-one] |
